Source: patent EP1953147A1, “HETEROCYCLIC COMPOUND AND MEDICINAL APPLICATION THEREOF” (priority 2005, dated 2007)
pIC50: −log10 of the molar value. Where a name gives a salt, the structure may show the parent alone.

Tested on: ΔG/SEAP/HCV E1E2
Test: Effect of test substance on cell infection with HCV pseudotype virus (SEAP reporter assay in HepG2 cells)
Type: cell-based
Conditions: Hepatitis C virus

SMILES: O=c1c2c(c(C3=CCCCC3)nn1-c1cc(N3CC[C@H](O)C3)ccc1C(F)(F)F)CCC2 [Example 113, 4-cyclohex-1-enyl-2-[5-((S)-3-hydroxy-pyrrolidin-1-yl)-2-trifluoromethyl-phenyl]-2,5,6,7-tetrahydro-cyclopenta[d]pyridazin-1-one]
- pIC50: 5.00 to 7.00

SMILES: Cc1ccc(-c2nn(-c3cc(N4CC[C@H](O)C4)ccc3C(F)(F)F)c(=O)c3c2CCC3)cc1 [Example 114, 2-[5-((S)-3-hydroxy-pyrrolidin-1-yl)-2-trifluoromethyl-phenyl]-4-p-tolyl-2,5,6,7-tetrahydro-cyclopenta[d]pyridazin-1-one]
- pIC50: > 7.00

SMILES: COc1cc(OC)cc(-c2nn(-c3cc(NCCC(=O)OC(C)(C)C)ccc3C(F)(F)F)c(=O)c3c2CCC3)c1 [Example 115, 3-{3-[4-(3,5-dimethoxy-phenyl)-1-oxo-1,5,6,7-tetrahydro-cyclopenta[d]pyridazin-2-yl]-4-trifluoromethyl-phenylamino}-propionic acid tert-butyl ester]
- pIC50: > 7.00

SMILES: COc1cc(OC)cc(-c2nn(-c3cc(NCCN(C)C)ccc3C(F)(F)F)c(=O)c3c2CCC3)c1 [Example 116, 4-(3,5-dimethoxy-phenyl)-2-[5-(2-dimethylamino-ethylamino)-2-trifluoromethyl-phenyl]-2,5,6,7-tetrahydro-cyclopenta[d]pyridazin-1-one]
- pIC50: > 7.00

SMILES: COc1cc(OC)cc(-c2nn(-c3cc(NCCNC(C)=O)ccc3C(F)(F)F)c(=O)c3c2CCC3)c1 [Example 117, N-(2-{3-[4-(3,5-dimethoxy-phenyl)-1-oxo-1,5,6,7-tetrahydro-cyclopenta[d]pyridazin-2-yl]-4-trifluoromethyl-phenylamino}-ethyl)-acetamide]
- pIC50: > 7.00

SMILES: COc1cc(OC)cc(-c2nn(-c3cc(NCCNC(=O)OC(C)(C)C)ccc3C(F)(F)F)c(=O)c3c2CCC3)c1 [Example 118, (2-{3-[4-(3,5-dimethoxy-phenyl)-1-oxo-1,5,6,7-tetrahydro-cyclopenta[d]pyridazin-2-yl]-4-trifluoromethyl-phenylamino}-ethyl)-carbamic acid tert-butyl ester]
- pIC50: > 7.00

SMILES: COc1cc(OC)cc(-c2nn(-c3cc(NCCN)ccc3C(F)(F)F)c(=O)c3c2CCC3)c1 [Example 119, 2-[5-(2-amino-ethylamino)-2-trifluoromethylphenyl]-4-(3,5-dimethoxy-phenyl)-2,5,6,7-tetrahydro-cyclopenta[d]pyridazin-1-one hydrochloride]
- pIC50: > 7.00

SMILES: COc1cc(OC)cc(-c2nn(-c3cc(C#CCO)ccc3C(F)(F)F)c(=O)c3c2CCC3)c1 [Example 120, 4-(3,5-dimethoxy-phenyl)-2-[5-(3-hydroxy-prop-1-ynyl)-2-trifluoromethyl-phenyl]-2,5,6,7-tetrahydro-cyclopenta[d]pyridazin-1-one]
- pIC50: > 7.00

SMILES: COc1cc(OC)cc(-c2nn(-c3cc(CCCO)ccc3C(F)(F)F)c(=O)c3c2CCC3)c1 [Example 121, 4-(3,5-dimethoxy-phenyl)-2-[5-(3-hydroxy-propyl)-2-trifluoromethyl-phenyl]-2,5,6,7-tetrahydro-cyclopenta[d]pyridazin-1-one]
- pIC50: > 7.00

SMILES: COc1cc(OC)cc(-c2nn(-c3cc(NCCC(=O)O)ccc3C(F)(F)F)c(=O)c3c2CCC3)c1 [Example 122, 3-{3-[4-(3,5-dimethoxy-phenyl)-1-oxo-1,5,6,7-tetrahydro-cyclopenta[d]pyridazin-2-yl]-4-trifluoromethyl-phenylamino}-propionic acid]
- pIC50: > 7.00

SMILES: COc1cc(OC)cc(-c2nn(-c3cc(NCC(N)=O)ccc3C(F)(F)F)c(=O)c3c2CCC3)c1 [Example 123, 2-{3-[4-(3,5-dimethoxy-phenyl)-1-oxo-1,5,6,7-tetrahydro-cyclopenta[d]pyridazin-2-yl]-4-trifluoromethyl-phenylamino}-acetamide]
- pIC50: > 7.00

SMILES: CNC(=O)CNc1ccc(C(F)(F)F)c(-n2nc(-c3cc(OC)cc(OC)c3)c3c(c2=O)CCC3)c1 [Example 124, 2-{3-[4-(3,5-dimethoxy-phenyl)-1-oxo-1,5,6,7-tetrahydro-cyclopenta[d]pyridazin-2-yl]-4-trifluoromethyl-phenylamino}-N-methyl-acetamide]
- pIC50: > 7.00

SMILES: COc1cc(OC)cc(-c2nn(-c3cc(NCC(=O)N(C)C)ccc3C(F)(F)F)c(=O)c3c2CCC3)c1 [Example 125, 2-{3-[4-(3,5-dimethoxy-phenyl)-1-oxo-1,5,6,7-tetrahydro-cyclopenta[d]pyridazin-2-yl]-4-trifluoromethyl-phenylamino}-N,N-dimethyl-acetamide]
- pIC50: > 7.00

SMILES: COC(=O)CNc1ccc(C(F)(F)F)c(-n2nc(-c3cc(OC)cc(OC)c3)c3c(c2=O)CCC3)c1 [Example 126, {3-[4-(3,5-dimethoxy-phenyl)-1-oxo-1,5,6,7-tetrahydro-cyclopenta[d]pyridazin-2-yl]-4-trifluoromethyl-phenylamino}-acetic acid methyl ester]
- pIC50: > 7.00

SMILES: COc1cc(OC)cc(-c2nn(-c3cc(NCCCN)ccc3C(F)(F)F)c(=O)c3c2CCC3)c1 [Example 127, 2-[5-(3-amino-propylamino)-2-trifluoromethylphenyl]-4-(3,5-dimethoxy-phenyl)-2,5,6,7-tetrahydro-cyclopenta[d]pyridazin-1-one hydrochloride]
- pIC50: > 7.00

SMILES: COc1cc(OC)cc(-c2nn(-c3cc(NCCCN(C)C)ccc3C(F)(F)F)c(=O)c3c2CCC3)c1 [Example 128, 4-(3,5-dimethoxy-phenyl)-2-[5-(3-dimethylamino-propylamino)-2-trifluoromethyl-phenyl]-2,5,6,7-tetrahydro-cyclopenta[d]pyridazin-1-one]
- pIC50: > 7.00

SMILES: COc1cc(OC)cc(-c2nn(-c3cc(NCCCNC(=O)OC(C)(C)C)ccc3C(F)(F)F)c(=O)c3c2CCC3)c1 [Example 129, (3-{3-[4-(3,5-dimethoxy-phenyl)-1-oxo-1,5,6,7-tetrahydro-cyclopenta[d]pyridazin-2-yl]-4-trifluoromethyl-phenylamino}-propyl)-carbamic acid tert-butyl ester]
- pIC50: > 7.00

SMILES: COc1cc(OC)cc(-c2nn(-c3cc(NCCCO)ccc3C(F)(F)F)c(=O)c3c2CCC3)c1 [Example 130, 4-(3,5-dimethoxy-phenyl)-2-[5-(3-hydroxy-propylamino)-2-trifluoromethyl-phenyl]-2,5,6,7-tetrahydro-cyclopenta[d]pyridazin-1-one]
- pIC50: > 7.00

SMILES: COc1cc(OC)cc(-c2nn(-c3cc(NC(C)CO)ccc3C(F)(F)F)c(=O)c3c2CCC3)c1 (stereo not drawn) [Example 131, 4-(3,5-dimethoxy-phenyl)-2-[5-(2-hydroxy-1-methyl-ethylamino)-2-trifluoromethyl-phenyl]-2,5,6,7-tetrahydro-cyclopenta[d]pyridazin-1-one]
- pIC50: > 7.00

SMILES: COc1cc(OC)cc(-c2nn(-c3cc(NCC(C)O)ccc3C(F)(F)F)c(=O)c3c2CCC3)c1 (stereo not drawn) [Example 132, 4-(3,5-dimethoxy-phenyl)-2-[5-(2-hydroxy-propylamino)-2-trifluoromethyl-phenyl]-2,5,6,7-tetrahydro-cyclopenta[d]pyridazin-1-one]
- pIC50: > 7.00

SMILES: Cc1ccccc1-c1nn(-c2cc(N3CC[C@H](O)C3)ccc2C(F)(F)F)c(=O)c2c1CCC2 [Example 133, 2-[5-((S)-3-hydroxy-pyrrolidin-1-yl)-2-trifluoromethyl-phenyl]-4-o-tolyl-2,5,6,7-tetrahydro-cyclopenta[d]pyridazin-1-one]
- pIC50: 5.00 to 7.00
